From patent US20250134998A1, “T CELLS WITH CELL-SURFACE EXPRESSION OF ADENOSINE DEAMINASE AND USES THEREOF” (The Board of Trustees of the Leland Stanford Junior …, priority 2021, published 2025)

Tests used:
Format in all cases: cell-based, human
Nalm6-GD2 = experiment: IL-2 and IFNγ ELISA, HA CAR T cells stimulated with Nalm6-GD2 with or without EHNA; conditions: 10 uM EHNA
Description: HA CAR T cells were stimulated with Nalm6-GD2 tumor line in the presence or absence of 10 uM of EHNA inhibitor at day 15 post-activation. IL-2 and IFNγ secretion was assessed using ELISA. One donor shown.
In some further experiments, CAR T cells overexpressing either ADA1-TM or ADA2-TM were activated with Nalm6-GD2 in the presence or absence of 10 uM of adenosine deaminase inhibitor—EHNA. It was observed that both CAR T cells overexpressing either HA-ADA1-TM or HA-ADA2-TM produced more IL-2 and IFNγ as compared to control group and this increase was abrogated in the presence of EHNA (see e.g., FIG. 12D).

CD19.BBz CAR T cells = experiment: Suppression assay: IL-2 secretion by CD19 CAR T cells with HA CAR T cells present; conditions: CD19 CAR T cells pre-incubated with A2aR inhibitor, in the presence of adenosine-producing HA cells
Description: Suppression Assay: For assessing IL-2 secretion inhibition 5×10^4 CD19 CAR T cells 5×10^4 Nalm6 tumor cells together with 5×10^4 of HA CAR or Mock T cells were cultured in 300 μL CM in 96-well flat bottom plates for 24 h. Triplicate wells were plated for each condition. Culture supernatants were collected and analyzed for IL-2 by ELISA (BioLegend).
IL-2 secreted by CD19.BBz CAR T cells co-cultured with Nalm6 leukemia cells was measured in the presence or absence of bulk or sorted CD8+HA CAR T cells for 24 hours.
To test this hypothesis that adenosine production was responsible for the suppressive function of exhausted CAR T cells over neighboring cells, whether HA CAR-T cells were able to produce adenosine in an autocrine manner was investigated (FIG. 7D). Next, CD19 CAR T cells that were pre-incubated with A2aR inhibitor were activated in the presence or absence of (CD8) HA CAR T cells.

NF-kB pathway = experiment: NF-κB-GFP activation reporter in HA CAR-T cells
From the text: FIG. 7C illustrates NFkB-GFP activation level 4 hrs after stimulation of HA CAR T cells in the presence or absence of NECA and A2aR competitive inhibitor. Data are mean s.e.m. from triplicate wells.
To test whether CAR T cells are susceptible to adenosine-mediated suppression, HA and CD19 CAR T cells were activated with plate-bounded idiotype in the presence or absence of the adenosine receptor agonist 5′-(N-ethylcarboxamido) adenosine (NECA), and analyzed the effector cytokine secretion capacity by ELISA (FIG. 6D; FIGS. 7A-7B). […] Adenosine-dependent a2aR stimulation led to elevate intracellular 3′,5′-cyclic adenosine monophosphate (cAMP) which in turn inhibited the NF-kB pathway and cell proliferation (FIG. 6A). To evaluate whether adenosine suppression of CAR T cells worked through the same mechanisms, an NF-κB activation reporter was constructed by placing the Green Fluorescence Protein (GFP) gene downstream of NF-κB response elements. HA CAR-T cells were co-transduced with this NF-kB-GFP reporter. Upon activation with plate-bound idiotype, NECA diminished activation of the NF-kB-GFP reporter (FIG. 7C). This inhibitory effect on activation was prevented by addition of the selective A2aR competitive antagonist (iA2aR), confirming A2a receptor (A2aR) involvement in the suppressive effect of NECA on HA CAR-T cells.

HA and CD19 CAR T cells = experiment: Cytokine secretion by idiotype-activated CAR T cells with NECA (ELISA); conditions: plate-bound idiotype, NECA treatment
Description: Co-culture Assays: CAR-T cells were cultured with 1 μM of CPI444 (CORVUS BIOPHARMA) for 2 to 24 hours before the duration of co-culture (unless stated otherwise) with tumor cells or plate-bound idiotype at the concentration 1 or 5 μg/ml. To stimulate a2aR, cells were treated with 0.01-0.1 mM of NECA (Torcis). For cytotoxicity assays, approximately 5×10^4 of tumor cells were co-cultured with CAR T cells at indicated ratio in 200 μL CM in 96-well flat bottom plates. Four images per well at 10× zoom were collected at each time point. Tumor cell growth was quantified by measuring total integrated GFP intensity per well using an IncuCyte ZOOM Live-Cell analysis system (Essen Bioscience) every 2-3 hr. GFP signal was normalized to the time 0 signal. Cell culture supernatants were collected at 24 hours, and interleukin-2 (IL-2) and interferon-g concentrations were determined by enzyme-linked immunosorbent assay (Biolegend). Triplicate wells were plated for each condition. […]
To test whether CAR T cells are susceptible to adenosine-mediated suppression, HA and CD19 CAR T cells were activated with plate-bounded idiotype in the presence or absence of the adenosine receptor agonist 5′-(N-ethylcarboxamido) adenosine (NECA), and analyzed the effector cytokine secretion capacity by ELISA (FIG. 6D; FIGS. 7A-7B). […]

## CCCCCC[C@@H]([C@@H](C)O)n1cnc2c(N)ncnc21 (racemic) [EHNA]
Nalm6-GD2
  increase in IFNγ by CAR T cells overexpressing HA-ADA1-TM or HA-ADA2-TM: abrogated
  increase in IL-2 by CAR T cells overexpressing HA-ADA1-TM or HA-ADA2-TM: abrogated

## Cc1ccc(-c2nc(N)nc3c2nnn3Cc2cccc(CO[C@H]3CCOC3)n2)o1 [iA2aR]
CD19.BBz CAR T cells
  IL-2 production by CD19 CAR T cells: restored IL-2 production
NF-kB pathway; A2aR antagonist added
  inhibitory effect of NECA on NF-kB-GFP reporter activation: prevented

## CCNC(=O)[C@H]1O[C@@H](n2cnc3c(N)ncnc32)[C@H](O)[C@@H]1O [NECA, 5′-(N-ethylcarboxamido) adenosine]
HA and CD19 CAR T cells
  IFNγ production: reduced
  IL-2 production: reduced
NF-kB pathway; plate-bound idiotype
  activation of the NF-kB-GFP reporter: diminished
